From ChEMBL document CHEMBL1151369, “Antitumor agents. 39. Bruceantinoside-A and -B, novel antileukemic quassinoid glucosides from Brucea antidysenterica” (1981)

Legend:
Format in all cases: functional
P388 [1] = assay: In vivo antileukemic activity against mouse P388 cells at 6 mg/kg relative to control
P388 [2] = assay: In vivo antileukemic activity against mouse P388 cells at 10 mg/kg relative to control
P388 [3] = assay: In vivo antileukemic activity against mouse P388 cells at 0.5 mg/kg relative to control
P388 [4] = assay: In vivo antileukemic activity against mouse P388 cells at 20 mg/kg relative to control
P388 [5] = assay: In vivo antileukemic activity against mouse P388 cells at 1 mg/kg relative to control

Row | SMILES | T/C (P388 [1]) [%] | T/C (P388 [2]) [%] | T/C (P388 [3]) [%] | T/C (P388 [4]) [%] | T/C (P388 [5]) [%]
1 | COC(=O)[C@]12OC[C@@]34[C@H](C[C@H]5[C@H](C)C(=O)C(O[C@@H]6O[C@H](CO)[C@@H](O)[C@H](O)[C@H]6O)=C[C@]5(C)[C@H]3[C@@H](O)[C@@H]1O)OC(=O)[C@H](OC(=O)/C=C(\C)C(C)C)[C@@H]24 [BRUCEANTINOSIDE A] | 118 | 152 | 110 | 172 | 106
2 | COC(=O)[C@]12OC[C@@]34[C@H](C[C@H]5C(C)=C(O[C@@H]6O[C@H](CO)[C@@H](O)[C@H](O)[C@H]6O)C(=O)C[C@]5(C)[C@H]3[C@@H](O)[C@@H]1O)OC(=O)[C@H](OC(=O)/C=C(\C)C(C)C)[C@@H]24 [BRUCEANTINOSIDE B] | – | 132 | – | 160 | –
